# Measured values published in US12077503B2, “Substituted cyclic amides and their use as herbicides” (FMC CORPORATION, priority 2015, dated 2024).
# Key:
# Format in all cases: in vivo
# [1] = system: barnyardgrass (Echinochloa crus-galli); assay: Test G Post-Emergence Protocol; settings: Echinochloa crus-galli, post-emergence, 312 h, read-out: Barnyardgrass damage rating; for pest or weed control at 15.625 g/ha: 15.625 g ai/ha, evaluated after 13 days (100=total damage to plant; 0=no damage to plant); for pest or weed control at 62.5 g/ha: 62.5 g ai/ha; for pest or weed control at 62.5 g/ha / pest or weed control at 250 g/ha: evaluated after 13 days, 100=total damage to plant, 0=no damage to plant; for pest or weed control at 250 g/ha: 250 g ai/ha
# How it was run: (§1)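 Eight days post-sowing, plants received a spray of test compound (acetone/water 50:50, 0.5% Tween 20) at 15.625, 62.5 or 250 g/ha. Glasshouse regime thereafter: 24/16 °C, 14 h light, 65% humidity. Assessment after 13 days on a 0–100 damage scale.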
# [2] = system: redroot pigweed (Amaranthus retroflexus); assay: Test G Post-Emergence Protocol; settings: Amaranthus retroflexus, post-emergence, 312 h, read-out: Pigweed, Redroot damage rating; for pest or weed control at 15.625 g/ha: 15.625 g ai/ha, evaluated after 13 days (100=total damage to plant; 0=no damage to plant); for pest or weed control at 62.5 g/ha: 62.5 g ai/ha; for pest or weed control at 62.5 g/ha / pest or weed control at 250 g/ha: evaluated after 13 days, 100=total damage to plant, 0=no damage to plant; for pest or weed control at 250 g/ha: 250 g ai/ha
# How it was run: as §1
# [3] = system: velvetleaf (Abutilon theophrasti); assay: Test G Post-Emergence Protocol; settings: Abutilon theophrasti, post-emergence, 312 h, read-out: Velvetleaf damage rating; for pest or weed control at 15.625 g/ha: 15.625 g ai/ha, evaluated after 13 days (100=total damage to plant; 0=no damage to plant); for pest or weed control at 62.5 g/ha: 62.5 g ai/ha; for pest or weed control at 62.5 g/ha / pest or weed control at 250 g/ha: evaluated after 13 days, 100=total damage to plant, 0=no damage to plant; for pest or weed control at 250 g/ha: 250 g ai/ha
# How it was run: as §1
# corn (Zea mays) [4] = assay: Test G Post-Emergence Protocol; settings: Zea mays, post-emergence, 312 h, read-out: Corn damage rating; for plant injury at 15.625 g/ha: 15.625 g ai/ha, evaluated after 13 days (100=total damage to plant; 0=no damage to plant); for plant injury at 62.5 g/ha: 62.5 g ai/ha; for plant injury at 62.5 g/ha / plant injury at 250 g/ha: evaluated after 13 days, 100=total damage to plant, 0=no damage to plant; for plant injury at 250 g/ha: 250 g ai/ha
# How it was run: as §1
# [5] = system: ivy-leaved morning glory (Ipomoea hederacea); assay: Test G Post-Emergence Protocol; settings: Ipomoea, post-emergence, 312 h, read-out: Morningglory, Ivy-leaved damage rating; for pest or weed control at 15.625 g/ha: 15.625 g ai/ha, evaluated after 13 days (100=total damage to plant; 0=no damage to plant); for pest or weed control at 62.5 g/ha: 62.5 g ai/ha; for pest or weed control at 62.5 g/ha / pest or weed control at 250 g/ha: evaluated after 13 days, 100=total damage to plant, 0=no damage to plant; for pest or weed control at 250 g/ha: 250 g ai/ha
# How it was run: as §1
# [6] = system: giant foxtail (Setaria faberi); assay: Test G Post-Emergence Protocol; settings: Setaria faberi, post-emergence, 312 h, read-out: Foxtail, Giant damage rating; for pest or weed control at 15.625 g/ha: 15.625 g ai/ha, evaluated after 13 days (100=total damage to plant; 0=no damage to plant); for pest or weed control at 62.5 g/ha: 62.5 g ai/ha; for pest or weed control at 62.5 g/ha / pest or weed control at 250 g/ha: evaluated after 13 days, 100=total damage to plant, 0=no damage to plant; for pest or weed control at 250 g/ha: 250 g ai/ha
# How it was run: as §1
# [7] = system: barnyardgrass (Echinochloa crus-galli); assay: Test G Pre-Emergence Protocol; settings: Echinochloa crus-galli, pre-emergence, 312 h, evaluated after 13 days; for pest or weed control at 15.625 g/ha: 15.625 g ai/ha; for pest or weed control at 15.625 g/ha / pest or weed control at 250 g/ha: read-out: Barnyardgrass damage rating (100=total damage to plant; 0=no damage to plant); for pest or weed control at 62.5 g/ha: 62.5 g ai/ha, 100=total damage to plant, 0=no damage to plant, read-out: Barnyardgrass damage rating; for pest or weed control at 250 g/ha: 250 g ai/ha
# How it was run: (§2)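 Herbicidal effect was rated 13 days post-application on a scale where 100 equals total damage. Spraying took place the day after sowing, using 15.625, 62.5 or 250 g/ha of compound in a 50:50 acetone/water solution with 0.5% Tween 20.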
# [8] = system: redroot pigweed (Amaranthus retroflexus); assay: Test G Pre-Emergence Protocol; settings: Amaranthus retroflexus, pre-emergence, 312 h, evaluated after 13 days; for pest or weed control at 15.625 g/ha: 15.625 g ai/ha; for pest or weed control at 15.625 g/ha / pest or weed control at 250 g/ha: read-out: Pigweed, Redroot damage rating (100=total damage to plant; 0=no damage to plant); for pest or weed control at 62.5 g/ha: 62.5 g ai/ha, 100=total damage to plant, 0=no damage to plant, read-out: Pigweed, Redroot damage rating; for pest or weed control at 250 g/ha: 250 g ai/ha
# How it was run: as §2
# [9] = system: velvetleaf (Abutilon theophrasti); assay: Test G Pre-Emergence Protocol; settings: Abutilon theophrasti, pre-emergence, 312 h, evaluated after 13 days; for pest or weed control at 15.625 g/ha: 15.625 g ai/ha; for pest or weed control at 15.625 g/ha / pest or weed control at 250 g/ha: read-out: Velvetleaf damage rating (100=total damage to plant; 0=no damage to plant); for pest or weed control at 62.5 g/ha: 62.5 g ai/ha, 100=total damage to plant, 0=no damage to plant, read-out: Velvetleaf damage rating; for pest or weed control at 250 g/ha: 250 g ai/ha
# How it was run: as §2
# corn (Zea mays) [10] = assay: Test G Pre-Emergence Protocol; settings: Zea mays, pre-emergence, 312 h, evaluated after 13 days; for plant injury at 15.625 g/ha: 15.625 g ai/ha; for plant injury at 15.625 g/ha / plant injury at 250 g/ha: read-out: Corn damage rating (100=total damage to plant; 0=no damage to plant); for plant injury at 62.5 g/ha: 62.5 g ai/ha, 100=total damage to plant, 0=no damage to plant, read-out: Corn damage rating; for plant injury at 250 g/ha: 250 g ai/ha
# How it was run: as §2
# [11] = system: ivy-leaved morning glory (Ipomoea hederacea); assay: Test G Pre-Emergence Protocol; settings: Ipomoea, pre-emergence, 312 h, evaluated after 13 days; for pest or weed control at 15.625 g/ha: 15.625 g ai/ha; for pest or weed control at 15.625 g/ha / pest or weed control at 250 g/ha: read-out: Morningglory, Ivy-leaved damage rating (100=total damage to plant; 0=no damage to plant); for pest or weed control at 62.5 g/ha: 62.5 g ai/ha, 100=total damage to plant, 0=no damage to plant, read-out: Morningglory, Ivy-leaved damage rating; for pest or weed control at 250 g/ha: 250 g ai/ha
# How it was run: as §2
# [12] = system: giant foxtail (Setaria faberi); assay: Test G Pre-Emergence Protocol; settings: Setaria faberi, pre-emergence, 312 h, evaluated after 13 days; for pest or weed control at 15.625 g/ha: 15.625 g ai/ha; for pest or weed control at 15.625 g/ha / pest or weed control at 250 g/ha: read-out: Foxtail, Giant damage rating (100=total damage to plant; 0=no damage to plant); for pest or weed control at 62.5 g/ha: 62.5 g ai/ha, 100=total damage to plant, 0=no damage to plant, read-out: Foxtail, Giant damage rating; for pest or weed control at 250 g/ha: 250 g ai/ha
# How it was run: as §2
SMILES,pest or weed control at 15.625 g/ha [1],pest or weed control at 62.5 g/ha [1],pest or weed control at 250 g/ha [1],pest or weed control at 15.625 g/ha [2],pest or weed control at 62.5 g/ha [2],pest or weed control at 250 g/ha [2],pest or weed control at 15.625 g/ha [3],pest or weed control at 62.5 g/ha [3],pest or weed control at 250 g/ha [3],plant injury at 15.625 g/ha (corn (Zea mays) [4]),plant injury at 62.5 g/ha (corn (Zea mays) [4]),plant injury at 250 g/ha (corn (Zea mays) [4]),pest or weed control at 15.625 g/ha [5],pest or weed control at 62.5 g/ha [5],pest or weed control at 250 g/ha [5],pest or weed control at 15.625 g/ha [6],pest or weed control at 62.5 g/ha [6],pest or weed control at 250 g/ha [6],pest or weed control at 15.625 g/ha [7],pest or weed control at 62.5 g/ha [7],further results
CN1C[C@H](c2ccc(Cl)cc2)[C@@H](C(=O)Nc2cccnc2F)C1=O [Compound 1810],0%,60%,80%,0%,10%,60%,20%,30%,40%,0%,0%,50%,20%,60%,20%,20%,80%,80%,60%,90%,pest or weed control at 250 g/ha [7]: 90%; pest or weed control at 15.625 g/ha [8]: 0%; pest or weed control at 62.5 g/ha [8]: 40%; pest or weed control at 250 g/ha [8]: 80%; pest or weed control at 15.625 g/ha [9]: 0%; pest or weed control at 62.5 g/ha [9]: 40%; pest or weed control at 250 g/ha [9]: 70%; plant injury at 15.625 g/ha (corn (Zea mays) [10]): 20%; plant injury at 62.5 g/ha (corn (Zea mays) [10]): 30%; plant injury at 250 g/ha (corn (Zea mays) [10]): 90%; pest or weed control at 15.625 g/ha [11]: 0%; pest or weed control at 62.5 g/ha [11]: 30%; pest or weed control at 250 g/ha [11]: 70%; pest or weed control at 15.625 g/ha [12]: 80%; pest or weed control at 62.5 g/ha [12]: 90%; pest or weed control at 250 g/ha [12]: 90%
CON1C[C@H](c2ccc(C(F)(F)F)cc2)[C@@H](C(=O)Nc2cccc(F)c2F)C1=O (racemic) [Compound 1836],0%,70%,80%,20%,60%,70%,10%,20%,50%,0%,10%,70%,20%,20%,40%,50%,70%,70%,10%,70%,pest or weed control at 250 g/ha [7]: 80%; pest or weed control at 15.625 g/ha [8]: 0%; pest or weed control at 62.5 g/ha [8]: 50%; pest or weed control at 250 g/ha [8]: 50%; pest or weed control at 15.625 g/ha [9]: 0%; pest or weed control at 62.5 g/ha [9]: 0%; pest or weed control at 250 g/ha [9]: 30%; plant injury at 15.625 g/ha (corn (Zea mays) [10]): 10%; plant injury at 62.5 g/ha (corn (Zea mays) [10]): 10%; plant injury at 250 g/ha (corn (Zea mays) [10]): 80%; pest or weed control at 15.625 g/ha [11]: 10%; pest or weed control at 62.5 g/ha [11]: 20%; pest or weed control at 250 g/ha [11]: 30%; pest or weed control at 15.625 g/ha [12]: 50%; pest or weed control at 62.5 g/ha [12]: 80%; pest or weed control at 250 g/ha [12]: 90%
CN1C[C@H](c2ccnc(C(C)(C)C)n2)[C@@H](C(=O)Nc2ccc(F)c(F)c2F)C1=O (racemic) [Compound 1770],0%,0%,70%,0%,20%,40%,0%,10%,30%,0%,0%,0%,0%,10%,20%,0%,20%,70%,0%,20%,pest or weed control at 250 g/ha [7]: 70%; pest or weed control at 15.625 g/ha [8]: 0%; pest or weed control at 62.5 g/ha [8]: 0%; pest or weed control at 250 g/ha [8]: 10%; pest or weed control at 15.625 g/ha [9]: 0%; pest or weed control at 62.5 g/ha [9]: 0%; pest or weed control at 250 g/ha [9]: 20%; plant injury at 15.625 g/ha (corn (Zea mays) [10]): 0%; plant injury at 62.5 g/ha (corn (Zea mays) [10]): 0%; plant injury at 250 g/ha (corn (Zea mays) [10]): 0%; pest or weed control at 15.625 g/ha [11]: 0%; pest or weed control at 62.5 g/ha [11]: 0%; pest or weed control at 250 g/ha [11]: 30%; pest or weed control at 15.625 g/ha [12]: 0%; pest or weed control at 62.5 g/ha [12]: 50%; pest or weed control at 250 g/ha [12]: 80%
